Measured values: patent US6750228B1, “Aromatic sulfone hydroxamic acid metalloprotease inhibitor” (priority 1997, dated 2004)
Where two headings read alike, the source gives them in different places.

How the values were obtained:
Assay in all cases: biochemical
MMP-13 = target: T1, MMP-13 (Homo sapiens, UniProt P45452); conditions: recombinant human MMP-13, MCA peptide substrate 4 μM, pH 7.5, room temperature; read-out: MMP-13 IC50
T1 construct: made in house; host or cells: baculovirus / insect cells
Summary of the method: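 Assay buffer 100 mM Tris-HCl, 100 mM NaCl, 10 mM CaCl2, pH 7.5. Activated MMP + inhibitor, 5 min RT; then methoxycoumarin peptide substrate, 4 μM final. Readout fluorescence; IC50 calculated.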

MMP-1 = target: T2, MMP-1 (Homo sapiens, UniProt P03956); conditions: recombinant human MMP-1, MCA peptide substrate 4 μM, pH 7.5, room temperature; read-out: MMP-1 IC50
T2 construct: made in house; host or cells: transfected HT-1080 cells (provided by Dr. Harold Welgus, Washington University)
T2 sequence (P03956 100-469): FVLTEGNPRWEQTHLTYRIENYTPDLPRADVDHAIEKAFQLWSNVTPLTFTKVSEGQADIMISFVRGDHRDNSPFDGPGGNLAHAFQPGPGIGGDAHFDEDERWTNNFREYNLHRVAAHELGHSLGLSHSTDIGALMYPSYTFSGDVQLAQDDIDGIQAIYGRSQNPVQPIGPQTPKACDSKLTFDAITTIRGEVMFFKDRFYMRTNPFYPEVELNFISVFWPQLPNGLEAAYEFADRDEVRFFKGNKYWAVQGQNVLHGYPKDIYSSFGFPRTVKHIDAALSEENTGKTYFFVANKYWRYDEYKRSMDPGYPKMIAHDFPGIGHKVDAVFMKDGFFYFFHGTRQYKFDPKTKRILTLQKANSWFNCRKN
Summary of the method: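 APMA- or trypsin-activated enzymes were preincubated with inhibitor for 5 min at room temperature, then the fluorogenic substrate MCA-Pro-Leu-Gly-Leu-Dpa-Ala-Arg-NH2 was added to a final 4 μM.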

MMP-2 = target: T3, MMP-2 (Homo sapiens, UniProt P08253)
T3 construct: made in house; provided by Dr. Gregory Goldberg, Washington University
T3 sequence (P08253 110-660): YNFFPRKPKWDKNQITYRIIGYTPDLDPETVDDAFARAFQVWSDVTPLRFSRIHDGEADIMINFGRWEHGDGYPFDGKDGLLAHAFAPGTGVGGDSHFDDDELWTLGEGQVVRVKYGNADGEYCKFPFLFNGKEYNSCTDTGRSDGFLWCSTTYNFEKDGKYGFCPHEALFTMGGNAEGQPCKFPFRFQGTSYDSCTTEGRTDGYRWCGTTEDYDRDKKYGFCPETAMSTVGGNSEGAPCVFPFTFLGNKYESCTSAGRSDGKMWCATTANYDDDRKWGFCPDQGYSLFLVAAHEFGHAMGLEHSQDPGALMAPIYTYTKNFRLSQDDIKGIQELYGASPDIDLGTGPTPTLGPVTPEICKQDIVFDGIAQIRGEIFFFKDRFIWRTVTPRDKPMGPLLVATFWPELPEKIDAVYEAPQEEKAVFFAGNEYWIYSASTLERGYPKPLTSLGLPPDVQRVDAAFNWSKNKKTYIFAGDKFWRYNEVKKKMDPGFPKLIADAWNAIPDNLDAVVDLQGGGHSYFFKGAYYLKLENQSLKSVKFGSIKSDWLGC
Summary of the method: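 APMA- or trypsin-activated human MMPs (MMP-1 from transfected HT-1080 cells, MMP-2 from transfected cells) preincubated with inhibitor in 1% DMSO at room temperature, then 4 μM MCA-Pro-Leu-Gly-Leu-Dpa-Ala-Arg-NH2 added in Tris/NaCl/CaCl2 buffer pH 7.5. IC50 from fluorescence reduction versus inhibitor concentration.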

[1] = recombinant human MMP-2, MCA peptide substrate 4 μM, pH 7.5, room temperature, read-out: MMP-2 IC50

Q: How did the IC50 (MMP-13) turn out when `O=C(CN1CCCCC1)N1CCC(C(=O)NO)(S(=O)(=O)c2ccc(Oc3ccc(C(F)(F)F)cc3)cc2)CC1` [Example 318] was run?
A: 0.3 nM

Q: And the IC50 (MMP-1)?
A: > 10000 nM

Q: What about the IC50 (MMP-2; [1]) of the same compound?
A: 0.1 nM

Q: What does the source list for `C=Cc1ccc(C(=O)C2CCN(c3ccc(S(=O)(=O)C4(C(=O)NO)CCOCC4)cc3)CC2)cc1` [Example 787]?
A: IC50 (MMP-13): 1.2 nM; IC50 (MMP-1): > 10000 nM; IC50 (MMP-2; [1]): 175 nM

Q: “Tetrahydro-N-hydroxy-4-[[4-(pentaflourooxy)phenyl]sulfonyl]-2H-thiopyran-4-carboxamide [Example 224]” was tested. Which IC50 (MMP-13) did it give?
A: < 0.1 nM

Q: What about the IC50 (MMP-1) of the same compound?
A: 4500 nM

Q: What about the IC50 (MMP-2; [1]) of the same compound?
A: < 0.1 nM

Q: `O=C(NO)C1(S(=O)(=O)c2ccc(N3CCN(S(=O)(=O)c4ccc(C(F)(F)F)cc4)CC3)cc2)CCOCC1` [Example 677] was tested. Which IC50 (MMP-13) did it give?
A: 7 nM

Q: And the IC50 (MMP-1)?
A: > 10000 nM

Q: What about the IC50 (MMP-2; [1]) of the same compound?
A: 34.7 nM

Q: How did the IC50 (MMP-13) turn out when `O=C(c1ccco1)N1CCC(C(=O)NO)(S(=O)(=O)c2ccc(N3CCC(OCc4ccc(Cl)cc4)CC3)cc2)CC1` [Example 432] was run?
A: 13.9 nM

Q: What about the IC50 (MMP-1) of the same compound?
A: > 10000 nM

Q: And the IC50 (MMP-2; [1])?
A: 100 nM

Q: Which IC50 (MMP-13) does the source give for `CCOc1ccccc1C1CCN(c2ccc(S(=O)(=O)C3(C(=O)NO)CCOCC3)cc2)CC1` [Example 544] here?
A: 35 nM

Q: What about the IC50 (MMP-1) of the same compound?
A: > 10000 nM

Q: What about the IC50 (MMP-2; MMP-2 IC50 (nM)) of the same compound?
A: 3100 nM

Q: Which results are given for `O=C(NO)C1(S(=O)(=O)c2ccc(N3CCC(OCc4ccc(Br)cc4)CC3)cc2)CCOCC1` [Example 579]?
A: IC50 (MMP-13): 2.7 nM; IC50 (MMP-1): > 10000 nM; IC50 (MMP-2; [1]): 100 nM

Q: Which results are given for `O=C(NO)C1(S(=O)(=O)c2ccc(N3CCC(Oc4ccccc4[N+](=O)[O-])CC3)cc2)CCOCC1` [Example 552]?
A: IC50 (MMP-13): 12.8 nM; IC50 (MMP-1): > 10000 nM; IC50 (MMP-2; [1]): 140 nM

Q: For `O=C(c1ccc2ccccc2c1)C1CCN(c2ccc(S(=O)(=O)C3(C(=O)NO)CCN(C4CC4)CC3)cc2)CC1` [Example 393], which IC50 (MMP-13) is on record?
A: 4.5 nM

Q: And the IC50 (MMP-1)?
A: > 10000 nM

Q: What about the IC50 (MMP-2; [1]) of the same compound?
A: 427 nM

Q: What does the source list for `O=C(c1cccc(F)c1)C1CCN(c2ccc(S(=O)(=O)C3(C(=O)NO)CCOCC3)cc2)CC1` [Example 728]?
A: IC50 (MMP-13): 9.4 nM; IC50 (MMP-1): > 10000 nM; IC50 (MMP-2; [1]): 106 nM

Q: Which results are given for `O=C(NO)C1(S(=O)(=O)c2ccc(N3CCCCC3)cc2)CCOCC1` [Example 209]?
A: IC50 (MMP-13): 50 nM; IC50 (MMP-1): > 10000 nM; IC50 (MMP-2; [1]): 130 nM

Q: Which results are given for `CCN(Cc1ccncc1)C(=O)C1CCN(c2ccc(S(=O)(=O)C3(C(=O)NO)CCOCC3)cc2)CC1` [Example 52]?
A: IC50 (MMP-13): 90 nM; IC50 (MMP-1): > 10000 nM; IC50 (MMP-2; [1]): 1900 nM

Q: With `O=C(NO)C1(S(=O)(=O)c2ccc(OC3CCCC(OCc4ccccc4Cl)C3)cc2)CCOCC1` (stereo not drawn) [Example 666] as the compound, how does the IC50 (MMP-13) read?
A: 48.4 nM

Q: What about the IC50 (MMP-1) of the same compound?
A: > 10000 nM

Q: And the IC50 (MMP-2; [1])?
A: 330 nM

Q: What does the source list for `O=C(CCCCN1CCNCC1)N1CCC(C(=O)NO)(S(=O)(=O)c2ccc(Oc3ccc(C(F)(F)F)cc3)cc2)CC1` [Example 343]?
A: IC50 (MMP-13): 1.7 nM; IC50 (MMP-1): > 10000 nM; IC50 (MMP-2; [1]): 0.8 nM

Q: With `Cc1ccc([N+](=O)[O-])c(OC2CCN(c3ccc(S(=O)(=O)C4(C(=O)NO)CCOCC4)cc3)CC2)c1` [Example 550] as the compound, how does the IC50 (MMP-13) read?
A: 20 nM

Q: What about the IC50 (MMP-1) of the same compound?
A: > 10000 nM

Q: What about the IC50 (MMP-2; [1]) of the same compound?
A: 2000 nM

Q: How did the IC50 (MMP-13) turn out when `CCCCC(=O)N1CCN(c2ccc(S(=O)(=O)C3(C(=O)NO)CCOCC3)cc2)CC1` [Example 591] was run?
A: 70 nM

Q: And the IC50 (MMP-1)?
A: > 10000 nM

Q: What about the IC50 (MMP-2; [1]) of the same compound?
A: 730 nM

Q: For `O=C(NO)C1(S(=O)(=O)c2ccc(N3CCC(OCc4ccccc4C(F)(F)F)CC3)cc2)CCOCC1` [Example 174], which IC50 (MMP-13) is on record?
A: 23.5 nM

Q: And the IC50 (MMP-1)?
A: > 10000 nM

Q: And the IC50 (MMP-2; [1])?
A: 800 nM

Q: With `CO[C@@H]1CCN(c2ccc(S(=O)(=O)C3(C(=O)NO)CCOCC3)cc2)C1` [Example 533] as the compound, how does the IC50 (MMP-13) read?
A: 60 nM

Q: What about the IC50 (MMP-1) of the same compound?
A: > 10000 nM

Q: What about the IC50 (MMP-2; [1]) of the same compound?
A: 150 nM

Q: With `O=C(NO)C1(S(=O)(=O)c2ccc(N3CCC4CCCCC4C3)cc2)CCOCC1` (stereo not drawn) [Example 692] as the compound, how does the IC50 (MMP-13) read?
A: 10 nM

Q: And the IC50 (MMP-1)?
A: > 10000 nM

Q: And the IC50 (MMP-2; [1])?
A: 22.7 nM
